The values below come from patent publication US20260115181A1, “TRANSCRIPTION FACTOR PFAP2-O5 INHIBITOR FOR PLASMODIUM FALCIPARUM, PHARMACEUTICAL COMPOSITION, AND DRUG FOR TREATING MALARIA RESISTANT TO ARTEMISININ AND ANALOG THEREOF” (priority 2023, published 2026).

The nature of data set [1]: Liver microsomal metabolism assay, rat. The data set is classed as in vitro ADME. The protocol:
(§1) In the microsomal metabolism assay, the inhibitor was incubated with liver microsomes from different species; the reaction was terminated at different time points; the remaining amount of the inhibitor in the samples at each time point was determined using LC-MS/MS. The percentage of parent drug remaining was calculated, and the hepatic intrinsic clearance CLint(liver) was finally obtained. Testosterone was used as a control in this study to verify the reliability of the experimental system. The detailed procedures were as follows: • The incubation system consisted of 0.1 M Tris-HCl buffer (pH 7.4), 1 mM MgCl2, 1 mM NADPH (Nicotinamide Adenine Dinucleotide Phosphate), and 0.5 mg/ml microsomes, and the final reaction volume was 200 μL. […] inhibitor and testosterone were pre-incubated with liver microsomes from different species in a 37° C. water bath for 5 minutes. 100 μL of NADPH was added to initiate the reaction. 400 μL of stop solution was added to terminate the reaction at time points of 0 minutes, 5 minutes, 15 minutes, 30 minutes, 45 minutes, and 60 minutes. 40 μL of internal standard was added, and the mixture was vortexed for 5 minutes and centrifuged at 20,000 g and 4° C. for 5 minutes. 100 μL of the supernatant was taken and diluted with 100 μL of water for injection and analysis. The retention time of the compound and the internal standard, chromatogram acquisition, and chromatogram integration were processed by Analyst 1.6.3 software. The compound was subjected to linear regression with a weighting coefficient of 1/X^2 to calculate the concentration at each time point. The natural logarithm of the percentage remaining at each time point was linearly regressed against the incubation time to calculate the in vitro elimination rate constant k. The half-life (T1/2) and hepatic intrinsic clearance CLint(liver) of the test article were calculated according to the following formula.
(§2) hepatic microsomal clearance CLint(mic)=0.693/half-life/mg microsomal protein per mL; hepatic intrinsic clearance CLint(liver)=hepatic microsomal clearance×mg microsomal protein/gram of liver×liver weight-to-body weight ratio. The liver weight-to-body weight ratios of mice, rats, and humans were 88, 40, and 20 g/kg, respectively; the average value of mg microsomal protein/gram of liver in different species was 45.

The test system of data set [2] is human liver cancer cell line HepG2. As to the kind of experiment: Cytotoxicity, CCK8 assay, HepG2 cells. The settings on record: HepG2, 72 hours. The data set is classed as cell-based. The protocol: (§3) Mammalian 293T and HepG2 cells were cultured and passaged, trypsinized, and resuspended in DMEM. The cells were counted using a hemocytometer and diluted to 10^5 cells/mL. The cell suspension was evenly added to a 96-well plate, with 100 μL per well. After the cells were subjected to attachment culture in a 37° C. incubator (5% CO2) for 24 hours, the inhibitors of the corresponding concentrations were added. Gradient dilution (11 concentration gradients) was performed at a 1/2 ratio according to the doubling gradient dilution. Complete culture medium was used as a negative control, and DMEM was used as a background control. After the culture in a 37° C. incubator (5% CO2) for 72 hours, 10 μL of CCK8 reagent was added to each well. The plate was incubated in a 37° C. incubator (5% CO2) for 1 hour. The absorbance at a 450 nm wavelength was read by a microplate reader, and a survival rate was calculated based on the absorbance.
(§4) [formula] • where Abtreated, Abbackground, and Abcontrol represent the absorbance values of the small molecule drug group, the DMEM control group, and the untreated control group, respectively. The inhibition rate of the drug was calculated based on the survival rate at different concentrations, and the growth inhibition curve was summarized as inhibition rate-drug concentration. The IC50 was calculated using SPSS 18.0 software.

For the next data set, the system named is Plasmodium falciparum. Nature of the data set: In vitro growth inhibition of Plasmodium falciparum (3-day SYBR Green I cell growth assay). The data set is classed as cell-based. The settings on record: wild-type Plasmodium falciparum, 72 hours, read-out: IC50 of the quantitative growth inhibitory effect on in vitro culture of Plasmodium falciparum. The protocol:
100 μL of complete culture medium was added to a 96-well plate. 200 μL of a compound stock solution with a concentration of 200 μM was added to the first well. Gradient dilution (11 concentration gradients) was performed at a 1/2 ratio according to the doubling gradient dilution. Dihydroartemisinin (DHA) was used as a positive control, complete culture medium was used as a negative control, and red blood cells without Plasmodium falciparum or compounds were used as a background control.
100 μL of wild-type Plasmodium falciparum culture (1% parasitemia, 4% hematocrit) was accurately added to each well, so that finally, the parasitemia in each well was 0.5%, and the hematocrit was 2%. The final concentration gradients of the compound were 100 μM, 50 μM, 25 μM, 12.5 μM, 6.25 μM, 3.125 μM, 1.5625 μM, 0.78125 μM, 0.390625 µM, 0.195313 μM, and 0.097656 μM. […] After the incubation was completed, a fluorescence intensity was recorded on a microplate reader with an excitation wavelength of 485 nm and an emission wavelength of 535 nm. The inhibition rate of the small molecule inhibitor on the growth of Plasmodium falciparum was calculated based on the fluorescence intensity.
[formula] • where Fltreated, Flbackground, and Flcontrol represent the fluorescence intensity values of the candidate small molecule drug group, the red blood cell control group, and the untreated control group, respectively. […]

Data set [3] relates to human renal epithelial cell line 293T. Nature of the data set: Cytotoxicity, CCK8 assay, 293T cells. The data set is classed as cell-based. The settings on record: 72 hours. How it is done:
as §3, §4

Data set [4] is described as follows: Liver microsomal metabolism assay, mouse. The data set is classed as in vitro ADME. The protocol: as §1, §2
Data set [5] can be described thus: Liver microsomal metabolism assay, human. The data set is classed as in vitro ADME. How it is done: as §1, §2
The subject of the next data set is PfAP2-O5. As to the kind of experiment: Transcriptome sequencing (RNA-seq) analysis of effects on PfAP2-O5 target (invasion) gene expression. The data set is classed as cell-based, Plasmodium falciparum. The settings on record: wild-type strain, 1 μM. The protocol:
Wild-type and pfap2-o5 conditional knockdown Plasmodium falciparum strains were treated with the hexahydroquinoline derivative represented by formula (I), respectively. After strict synchronization of the Plasmodium falciparum strains, 1 μM hexahydroquinoline derivative was added one life cycle in advance. After one life cycle, the ring (10-15 hours), trophozoite (28-32 hours), and schizont (40-44 hours) stage cultures of the wild-type and pfap2-o5 conditional knockdown Plasmodium falciparum strains treated with the hexahydroquinoline derivative were collected. Total RNA was purified using the Direct-zol RNA kit, strand-specific RNA sequencing libraries were then prepared using KAPA mRNA beads, and the RNA was fragmented. The libraries were sequenced on the Illumina HiSeq X Ten system, and the differential gene expression between the two Plasmodium falciparum strains after inhibitor treatment was analyzed.

Consider `CC1=C(C(=O)Nc2cccc(C(F)(F)F)c2)C(c2cccc([N+](=O)[O-])c2)C2=C(CC(C)(C)CC2=O)N1` (centres unmarked) [hexahydroquinoline derivative], for which the CLint scaled was 178 mL/min/kg in data set [1] (liver microsomes, pH 7.4, rat, hepatic intrinsic clearance CLint(liver), scaled with 45 mg protein/g liver, 40 g/kg); 176 mL/min/kg in data set [4] (liver microsomes, pH 7.4, mouse, hepatic intrinsic clearance CLint(liver), scaled with 45 mg protein/g liver, 88 g/kg); 22.3 mL/min/kg in data set [5] (liver microsomes, pH 7.4, human, hepatic intrinsic clearance CLint(liver), scaled with 45 mg protein/g liver, 20 g/kg). For the same molecule, the half-life was found to be 14.1 min in data set [1] (pH 7.4, rat liver microsomes 0.5 mg/ml, 1 mM NADPH, 37° C.); 31.2 min in data set [4] (pH 7.4, mouse liver microsomes 0.5 mg/ml, 1 mM NADPH, 37° C.); 55.9 min in data set [5] (pH 7.4, human liver microsomes 0.5 mg/ml, 1 mM NADPH, 37° C.). Further, the figures for the clearance classification result in data set [1] (rat liver microsomes), in data set [4] (mouse liver microsomes) and in data set [5] (human liver microsomes) were “high-clearance compound”, “moderate-clearance compound” and “moderate-clearance compound”, respectively. The k came out at 0.0493 min⁻¹ in data set [1] (rat liver microsomes 0.5 mg/ml, 1 mM NADPH, 1 M inhibitor, 37° C.); 0.0222 min⁻¹ in data set [4] (mouse liver microsomes 0.5 mg/ml, 1 mM NADPH, 1 M inhibitor, 37° C.); 0.0124 min⁻¹ in data set [5] (human liver microsomes 0.5 mg/ml, 1 mM NADPH, 1 M inhibitor, 37° C.). The “cytotoxicity to mammalian cells” value in data set [2] and in data set [3] was “low cytotoxicity” each time. In the data set with Plasmodium falciparum, the IC50 turned out to be 2160 nM. Besides, the “expression of PfAP2-O5 target genes after treatment” value in the data set on PfAP2-O5 is listed as “downregulated”. Besides, the “decrease of expression levels of merozoite surface structural protein family (invasion) genes (mRNA level)” value in the data set on PfAP2-O5 (added one life cycle in advance) was “more than 1.5 fold”.
